According to patent publication US20250230193A1, “CYCLIC COMPOUND HAVING SELECTIVE KRAS INHIBITORY EFFECT ON HRAS AND NRAS” (CHUGAI SEIYAKU KABUSHIKI KAISHA, priority 2022, published 2025):
Where a SMILES comes first, the peptide text is derived from it. Bridges are numbered along the chain shown (N, C = ends). [ ]: non-standard residue; d: D form. The star is where a group is joined. hPhe(3-Cl-4-CF3) = N[C@@H](CCc1ccc(C(F)(F)F)c(Cl)c1)C(=O)O; NPrPhe(4-CF3) = CCCN[C@@H](Cc1ccc(C(F)(F)F)cc1)C(=O)O; 3Oxa8azabicyclo(3.2.1)octane = C1CC2COCC1N2*; NMeGly(cPent) = CN[C@H](C(=O)O)C1CCCC1; NMeNva(3-Et) = CCC(CC)[C@H](NC)C(=O)O; NMeD = CN[C@@H](CC(=O)O)C(=O)O; NMeL = CN[C@@H](CC(C)C)C(=O)O; NMeNva = CCC[C@H](NC)C(=O)O; N(Me)CH2CH2OMe = COCCN(C)*; Morpholide = C1CN(*)CCO1; NMeA = CN[C@@H](C)C(=O)O; Ac5c = NC1(C(=O)O)CCCC1; Aze = O=C(O)[C@@H]1CCN1; Ac4c = NC1(C(=O)O)CCC1; Sar = CNCC(=O)O

Columns and labels:
[1] = target: GDP-bound HRAS wild-type protein (Homo sapiens, UniProt P01112); test: Binding to HRAS by surface plasmon resonance (SPR), Single Cycle Kinetics; conditions: for HRAS/KRAS (ratio of KD value for HRAS to KD value for KRAS): GDP-bound HRAS wild-type vs GDP-bound KRAS wild-type; for HRAS/KRAS (ratio of KD value for HRAS to KD value for KRAS) / HRAS/KRAS (ratio of KD for GDP-bound HRAS wild-type to KD for KRAS): SPR
Sequence of GDP-bound HRAS wild-type protein (P01112 whole entry): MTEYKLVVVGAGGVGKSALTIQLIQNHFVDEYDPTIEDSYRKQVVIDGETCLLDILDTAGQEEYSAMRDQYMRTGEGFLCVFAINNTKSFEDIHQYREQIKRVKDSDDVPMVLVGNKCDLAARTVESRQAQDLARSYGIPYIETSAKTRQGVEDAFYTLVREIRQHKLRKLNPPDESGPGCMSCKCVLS

[2] = target: GDP-bound NRAS wild-type protein (Homo sapiens, UniProt P01111); test: Binding to NRAS by surface plasmon resonance (SPR), Single Cycle Kinetics; conditions: for NRAS/KRAS (ratio of KD value for NRAS to KD value for KRAS): GDP-bound NRAS wild-type vs GDP-bound KRAS wild-type; for NRAS/KRAS (ratio of KD value for NRAS to KD value for KRAS) / NRAS/KRAS (ratio of KD for GDP-bound NRAS wild-type to KD for KRAS): SPR
Sequence of GDP-bound NRAS wild-type protein (P01111 whole entry): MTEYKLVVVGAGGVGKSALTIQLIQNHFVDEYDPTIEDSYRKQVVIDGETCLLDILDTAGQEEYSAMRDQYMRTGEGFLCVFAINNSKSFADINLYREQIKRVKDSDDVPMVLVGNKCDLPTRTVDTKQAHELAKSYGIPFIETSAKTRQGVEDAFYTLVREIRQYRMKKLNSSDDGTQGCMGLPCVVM

**Q.** Which “HRAS/KRAS (ratio of KD value for HRAS to KD value for KRAS)” value [1] does the source give for `CCCC[C@H]1C(=O)N[C@@H]([C@@H](C)CC)C(=O)N(C)CC(=O)N(C)[C@H]2C/C=C\CCN(C2=O)[C@@H](Cc2ccc(C(F)(F)F)cc2)C(=O)N(C)CC(=O)N[C@@H](CCc2cc(F)c(C(F)(F)F)c(F)c2)C(=O)N2C[C@H](F)C[C@H]2C(=O)NC2(CC(C)(C)C2)C(=O)N(C)[C@@H](C2CCCC2)C(=O)N(C)[C@H](C(=O)N(C)C)CC(=O)N1C` [PP1693] here?
**A.** A (a compound having 10 or more and less than 20 is denoted as A)

**Q.** And the “NRAS/KRAS (ratio of KD value for NRAS to KD value for KRAS)” value [2]?
**A.** AA (a compound having 20 or more is denoted as AA)

**Q.** `CCC[C@H]1C(=O)N[C@@H]([C@@H](C)CC)C(=O)N(C)[C@@H](C)C(=O)N2CC[C@H]2C(=O)N(CCC)[C@@H](Cc2ccc(C(F)(F)F)cc2)C(=O)N(C)CC(=O)N[C@@H](CCc2ccc(C(F)(F)F)c(Cl)c2)C(=O)N2CCC[C@H]2C(=O)NC2(CCC2)C(=O)N(C)[C@@H](C(CC)CC)C(=O)N(C)[C@H](C(=O)N2CCOCC2)CC(=O)N1C` [PP1959] ([NMeNva]I[NMeA][Aze][NPrPhe(4-CF3)][Sar][hPhe(3-Cl-4-CF3)]P[Ac4c][NMeNva(3-Et)][NMeD]-Morpholide; lactam N-11) was tested. Which “HRAS/KRAS (ratio of KD value for HRAS to KD value for KRAS)” value [1] did it give?
**A.** B (a compound having 3 or more and less than 10 is denoted as B)

**Q.** And the “NRAS/KRAS (ratio of KD value for NRAS to KD value for KRAS)” value [2]?
**A.** C (A compound having a KD ratio of 0.1 or more and less than 3 is denoted as C)

**Q.** Which results are given for `CC[C@H](C)[C@@H]1NC(=O)[C@H](CC)N(C)C(=O)C[C@@H](C(=O)N(C)CC)N(C)C(=O)[C@H](C2CCCC2)N(C)C(=O)C2(CC(C)(C)C2)NC(=O)[C@@H]2C[C@H](C)CN2C(=O)[C@H](CCc2ccc(C(F)(F)F)c(Cl)c2)NC(=O)CN(C)C(=O)[C@H](Cc2ccc(C)cc2)N2CC/C=C\C[C@@H](C2=O)N(C)C(=O)CN(C)C1=O` [PP1874]?
**A.** HRAS/KRAS (ratio of KD value for HRAS to KD value for KRAS) [1]: A (a compound having 10 or more and less than 20 is denoted as A); NRAS/KRAS (ratio of KD value for NRAS to KD value for KRAS) [2]: A (a compound having 10 or more and less than 20 is denoted as A)

**Q.** For `CCC[C@H]1C(=O)N[C@@H]([C@@H](C)CC)C(=O)N(C)CC(=O)N(C)[C@H]2C/C=C\CCN(C2=O)[C@@H](Cc2ccc(C)cc2)C(=O)N(C)CC(=O)N[C@@H](CCc2ccc(C(F)(F)F)c(OC)c2)C(=O)N2C[C@H](OCC)C[C@H]2C(=O)NC2(CC(C)(C)C2)C(=O)N(C)[C@@H](C2CCCC2)C(=O)N(C)[C@H](C(=O)N(C)C)CC(=O)N1C` [PP1892], which “HRAS/KRAS (ratio of KD value for HRAS to KD value for KRAS)” value [1] is on record?
**A.** B (a compound having 3 or more and less than 10 is denoted as B)

**Q.** And the “NRAS/KRAS (ratio of KD value for NRAS to KD value for KRAS)” value [2]?
**A.** A (a compound having 10 or more and less than 20 is denoted as A)

**Q.** Which results are given for `CCCN1C(=O)CN(C)C(=O)CN(C)C(=O)[C@H]([C@@H](C)CC)NC(=O)[C@H](CC(C)C)N(C)C(=O)C[C@@H](C(=O)N(C)CCOC)N(C)C(=O)[C@H](C2CCCC2)N(C)C(=O)C2(CCCC2)NC(=O)[C@@H]2CCCN2C(=O)[C@H](CCc2ccc(C(F)(F)F)c(Cl)c2)NC(=O)CN(C)C(=O)[C@@H]1Cc1ccc(C(F)(F)F)cc1` [PP0391] ([NMeL]I[Sar][Sar][NPrPhe(4-CF3)][Sar][hPhe(3-Cl-4-CF3)]P[Ac5c][NMeGly(cPent)][NMeD]-{N(Me)CH2CH2OMe}; lactam N-11)?
**A.** HRAS/KRAS (ratio of KD for GDP-bound HRAS wild-type to KD for KRAS) ([1]; KD ratio HRAS/KRAS): B (a compound having 3 or more and less than 10 is denoted as B); NRAS/KRAS (ratio of KD for GDP-bound NRAS wild-type to KD for KRAS) ([2]; KD ratio NRAS/KRAS): B (a compound having 3 or more and less than 10 is denoted as B)

**Q.** Which results are given for `CCC(CC)[C@H]1C(=O)N(C)[C@H](C(=O)N(C)C)CC(=O)N(C)[C@@H](COC)C(=O)N[C@@H]([C@@H](C)CC)C(=O)N(C)CC(=O)N(C)[C@H]2C/C=C\CCN(C2=O)[C@@H](Cc2ccc(C)cc2)C(=O)N(C)CC(=O)N[C@@H](CCc2ccc(C(F)(F)F)c(Cl)c2)C(=O)N2CC3(CC3)C[C@H]2C(=O)NC2(CC(C)(C)C2)C(=O)N1C` [PP2967]?
**A.** HRAS/KRAS (ratio of KD value with respect to GDP-bound HRAS wild-type protein to KD value with respect to KRAS) ([1]; KD ratio HRAS/KRAS, class symbols): A (a compound having 10 or more and less than 20 is denoted as A); NRAS/KRAS (ratio of KD value with respect to GDP-bound NRAS wild-type protein to KD value with respect to KRAS) ([2]; KD ratio NRAS/KRAS, class symbols): AA (a compound having 20 or more is denoted as AA)

**Q.** How did the “HRAS/KRAS (ratio of KD for GDP-bound HRAS wild-type to KD for KRAS)” value ([1]; KD ratio HRAS/KRAS) turn out when `CCCN1C(=O)[C@@H]2CCN2C(=O)[C@H](C)N(C)C(=O)[C@H]([C@@H](C)CC)NC(=O)[C@H](CC(C)C)N(C)C(=O)C[C@@H](C(=O)N2C3CCC2COC3)N(C)C(=O)[C@H](C2CCCC2)N(C)C(=O)C2(CCCC2)NC(=O)[C@@H]2CCCN2C(=O)[C@H](CCc2ccc(C(F)(F)F)c(Cl)c2)NC(=O)CN(C)C(=O)[C@@H]1Cc1ccc(C(F)(F)F)cc1` [PP0182] ([NMeL]I[NMeA][Aze][NPrPhe(4-CF3)][Sar][hPhe(3-Cl-4-CF3)]P[Ac5c][NMeGly(cPent)][NMeD]-{3Oxa8azabicyclo(3.2.1)octane}; lactam N-11) was run?
**A.** B (a compound having 3 or more and less than 10 is denoted as B)

**Q.** And the “NRAS/KRAS (ratio of KD for GDP-bound NRAS wild-type to KD for KRAS)” value ([2]; KD ratio NRAS/KRAS)?
**A.** C (A compound having a KD ratio of 0.1 or more and less than 3 is denoted as C)
